Laboratory results: patent publication US20060083784A1, “Amorphous pharmaceutical compositions” (SmithKline Beecham Corporation, priority 2002, published 2006)
Several values for one entry are separate records, joined by “and”; a condition that tells them apart may be missing. Equal values may be shown once.

Legend:
[1] = In vitro dissolution assay (modified USP 4 flow cell), Compound I samples; assay type: physicochemical; details: water and acetonitrile (8:2), 37° C., UV 275 nm, hemihydrate
Protocol: (§1) The equipment used for this procedure is a modified USP 4, the major differences being: 1. low volume cell. 2. stirred cell. 3. retaining filters which are adequate at retaining sub micron material. The total run time is 40 minutes. 2.5 mg of drug (weigh proportionally more formulated material).
(§2) Flow Cell Description: Swinnex filter assemblies obtained from Millipore, having 0.2 micron Cellulose Nitrate membranes. (Millipore, Mass.) as internal filters. The internal volume of the cell is approximately 2 ml. A Small PTFE stirrer customized to fit the Swinnex assembly (Radleys Lab Equipment Halfround Spinvane F37136) is used. The dissolution medium at a flow rate of 5 ml/min is used. The whole set up is placed at a thermostat of 37° C. The drug concentration is measured by passing the eluent through a UV detector having a flow cell dimension of 10 mm. The UV detection is carried out at an appropriate wavelength for the drug.
(§3) The experimentation is designed to evaluate drug dissolution rate. As such it is unlikely with poorly soluble drugs, and with water as the dissolution medium, that 100% of the drug will dissolve in the 40 minute duration of the test. To determine the extent of drug solubility over this period one collects all 200 ml of solution that elutes from the dissolution cell.
In vitro dissolution rates of samples 1.1, 1.2 and 1.3 were determined using the protocol described in the experimental section. The dissolution medium was a mixture of water and acetonitrile (8:2), and the wavelength used for drug detection 275 nm.

[2] = In vitro dissolution assay (modified USP 4 flow cell), Compound II samples; assay type: physicochemical; details: 0.1M HCl, 37° C., UV 244 nm
Protocol: as §1, §2
as §3, with “cell. Using a conventional UV spectrophotometer, this solution is compared against a reference solution of 2.5 or 4 mg of active agent dissolved in a suitable medium.” for “cell.”
In vitro dissolution rates of samples 2.1, 2.2, 2.3, 2.4, 2.5 and 2.6 were determined using the protocol described in the experimental section. The dissolution medium was 0.1M HCl, and the wavelength used for drug detection 244 nm. An unmilled lot of Compound II was used for comparison.

Row | Compound | % Drug Dissolved 10 min ([1]; 10 min) | % Drug Dissolved 20 min ([1]; 20 min) | % Drug Dissolved 30 min ([1]; 30 min) | % Drug Dissolved 40 min ([1]; 40 min) | % Drug Dissolved 10 min ([2]; 10 min) [%] | % Drug Dissolved 20 min ([2]; 20 min) [%] | % Drug Dissolved 30 min ([2]; 30 min) [%] | % Drug Dissolved 40 min ([2]; 40 min) [%]
1 | 6-Acetyl-3,4-dihydro-2,2-dimethyl-trans(+)-4-(4-fluorobenzoylamino)-2H-benzo[b]pyran-3-ol hemihydrate [Compound I] | 17.4% and 12.1% | 24.3% and 18.2% | 29.4% and 23.2% | 33.8% and 27.8% | – | – | – | –
2 | CC[C@H](NC(=O)c1c(O)c(-c2ccccc2)nc2ccccc12)c1ccccc1.Cl [Compound II, 3-Hydroxy-2-phenyl-N-[(1S)-1-phenylpropyl]-4-quinolinecarboxamide monohydrochloride] | – | – | – | – | 3.8 | 6.3 | 8.5 | 10.7
